US11090304B2 (Amgen Inc., priority 2018, dated 2021)
Where two headings read alike, the source gives them in different places.

Assays:
[1] = tested on: Phosphorylation of ERK1/2 in MIA PaCa-2 cells; experiment: Phospho-ERK1/2 MSD assay in MIA PaCa-2 cells; type: cell-based; details: read-out: p-ERK IC50 (2 h; MIA PaCa-2), 2 h compound treatment
Procedure, shortened: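 IC50 comes from a 4-parameter logistic fit of MSD phospho-ERK1/2 signal in lysates. Before lysis, MIA PaCa-2 or A549 cells were exposed to titrated compound for 2 or 4 h at 37 °C, followed by a 10 min 10 ng/mL EGF stimulus.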

[2] = target: GDP-bound KRAS protein (aa 1-169), containing both G12C and C118A amino acid substitutions (Homo sapiens, UniProt P01116, C118A/G12C); experiment: Coupled nucleotide exchange assay (SOS-mediated, AlphaScreen); type: biochemical; details: 5 min compound pre-incubation
Chain of GDP-bound KRAS protein (aa 1-169), containing both G12C and C118A amino acid substitutions (P01116 1-169 isoform P01116-2 G12C/C118A): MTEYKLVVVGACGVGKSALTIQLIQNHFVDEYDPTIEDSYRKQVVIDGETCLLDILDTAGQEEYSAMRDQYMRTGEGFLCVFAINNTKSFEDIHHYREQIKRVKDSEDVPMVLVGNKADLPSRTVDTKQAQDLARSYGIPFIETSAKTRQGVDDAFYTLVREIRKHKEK

IC50 ([1]; Homo sapiens, MIA PaCa-2, 2 h) [nM]	Coupled exchange IC50 (5 min) [2]	IC50 [1] [nM]	Compound
4300	3.95 | nda μM		C=CC(=O)N1CCN(c2nc(CN(C)C)c(-c3ccccc3C(C)C)c3nc(-c4ccccc4F)c(Cl)cc23)[C@@H](C)C1 [Example 86-1, 1-((3S)-4-(3-Chloro-7-((dimethylamino)methyl)-2-(2-fluorophenyl)-8-(2-isopropylphenyl)-1,6-naphthyridin-5-yl)-3-methylpiperazin-1-yl)prop-2-en-1-one]
62	0.047 | nda μM		C=CC(=O)N1CCN(c2nc(=O)n(-c3c(C)ccnc3C(C)C)c3nc(-c4cc(Cl)ccc4F)c(Cl)cc23)[C@@H](C)C1 (atropisomer, axis not shown; (M)) [Example 73-4, (M)-6-chloro-7-(5-chloro-2-fluorophenyl)-1-(4-methyl-2-(2-propanyl)-3-pyridinyl)-4-((2S)-2-methyl-4-(2-propenoyl)-1-piperazinyl)pyrido[2,3-d]pyrimidin-2(1H)-one]
219	0.189 | nda μM		C=CC(=O)N1CCN(c2nc(=O)n(-c3c(C)cccc3C(C)C)c3nc(-c4cccc(F)c4O)c(Cl)cc23)[C@@H](C)C1 (single isomer, unassigned) [Example 64-3]
44	0.039 | nda μM		C=CC(=O)N1CCN(c2nc(=O)n(-c3c(C)ccnc3C(C)C)c3nc(-c4c(N)cccc4F)c(F)cc23)[C@@H](C)C1 (atropisomer, axis not shown; (M)) [Example 72-11, (M)-7-(2-amino-6-fluorophenyl)-6-fluoro-1-(4-methyl-2-(2-propanyl)-3-pyridinyl)-4-((2S)-2-methyl-4-(2-propenoyl)-1-piperazinyl)pyrido[2,3-d]pyrimidin-2(1H)-one]
43	0.038 | nda μM		C=CC(=O)N1CCN(c2nc(=O)n(-c3c(N)cccc3C(C)C)c3nc(-c4ccccc4F)c(Cl)cc23)[C@@H](C)C1 (single isomer, unassigned) [Example 155-1]
246	0.141 | nda μM		C=CC(=O)N1CCN(c2nc(=O)n(-c3c(C)ccnc3C(C)C)c3nc(-c4ccccc4F)c(Cl)cc23)[C@H](C(F)F)C1 (single isomer, unassigned) [Example 78-3]
	0.485 | nda μM	867	C=CC(=O)N1CCN(c2nc(=O)n(-c3c(C(F)(F)F)ccnc3C(C)C)c3nc(-c4c(O)cccc4F)c(F)cc23)[C@@H](C)C1 (single isomer, unassigned) [Example 58-3-2]
1720	2.05 | nda μM		C=CC(=O)N1CCN(c2cc(=O)n(-c3ccccc3C(C)C)c3nc(-c4ccccc4F)c(Cl)cc23)[C@@H](C)C1 [Example 126, 6-Chloro-7-(2-fluorophenyl)-4-((2S)-2-methyl-4-(2-propenoyl)-1-piperazinyl)-1-(2-(2-propanyl)phenyl)-1,8-naphthyridin-2(1H)-one]
343	0.128 | nda μM		C=CC(=O)N1CCN(c2nc(=O)n(-c3c(F)cccc3C(C)C)c3nc(-c4ccccc4F)c(F)cc23)[C@@H](C)C1 (single isomer, unassigned) [Example 59-3-1]
5200	0.393 | nda μM		C=CC(=O)N1CCN(c2nc(=O)n(-c3c(C)cc(C(=O)O)cc3C(C)C)c3nc(-c4ccccc4F)c(Cl)cc23)[C@@H](C)C1 [Example 141, 4-(6-Chloro-7-(2-fluorophenyl)-4-((2S)-2-methyl-4-(2-propenoyl)-1-piperazinyl)-2-oxopyrido[2,3-d]pyrimidin-1(2H)-yl)-3-methyl-5-(2-propanyl)benzoic acid]
334	0.35 | nda μM		C=CC(=O)N1CCN(c2nc(=O)n(-c3scnc3CC)c3nc(-c4ccccc4F)c(Cl)cc23)[C@@H](C)C1 [Example 60-21, 6-chloro-1-(4-ethyl-1,3-thiazol-5-yl)-7-(2-fluorophenyl)-4-((2S)-2-methyl-4-(2-propenoyl)-1-piperazinyl)pyrido[2,3-d]pyrimidin-2(1H)-one]

Second part, the compound before the results:

Compound	IC50 ([1]; Homo sapiens, MIA PaCa-2, 2 h) [nM]	Coupled exchange IC50 (5 min) [2]	IC50 [1] [nM]
C=CC(=O)N1CCN(c2nc(=O)n(-c3cncnc3C3(C)CC3)c3nc(-c4ccccc4F)c(Cl)cc23)[C@@H](C)C1 [Example 54-54, 6-chloro-7-(2-fluorophenyl)-1-(4-(1-methyl-cyclopropyl)-5-pyrimidinyl)-4-((2S)-2-methyl-4-(2-propenoyl)-1-piperazinyl) pyrido[2,3-d]pyrimidin-2(1H)-one]	360	0.377 | nda μM	
C=CC(=O)N1CCN(c2nc(=O)n(-c3ncccc3CC(C)C)c3nc(-c4ccccc4F)c(Cl)cc23)[C@@H](C)C1 [Example 54-102, 6-chloro-7-(2-fluorophenyl)-4-((2S)-2-methyl-4-(2-propenoyl)-1-piperazinyl)-1-(3-(2-methylpropyl)-2-pyridinyl) pyrido[2,3-d]pyrimidin-2(1H)-one]	176	0.161 | nda μM	
C=CC(=O)N1CCN(c2nc(=O)n(-c3c(OC)ncnc3C(C)C)c3nc(-c4ccccc4F)c(Cl)cc23)[C@@H](C)C1 [Example 54-107, 6-chloro-7-(2-fluorophenyl)-1-(4-methoxy-6-(2-propanyl)-5-pyrimidinyl)-4-((2S)-2-methyl-4-(2-propenoyl)-1-piperazinyl) pyrido[2,3-d]pyrimidin-2(1H)-one]	99	0.159 | nda μM	
C=CC(=O)N1CCN(c2nc(=O)n(-c3ccccc3C(C)C)c3nc(-c4cccnc4N)c(Cl)cc23)[C@@H](C)C1 [Example 54-96, 7-(2-amino-3-pyridinyl)-6-chloro-4-((2S)-2-methyl-4-(2-propenoyl)-1-piperazinyl)-1-(2-(2-propanyl)phenyl)pyrido [2,3-d]pyrimidin-2(1H)-one]	363	0.676 | nda μM	
C=CC(=O)N1CCN(c2nc(=O)n(-c3c(C)nc(C)nc3C(C)C)c3nc(-c4c(O)cccc4F)c(Cl)cc23)[C@@H](C)C1 (single isomer, unassigned) [Example 55-4-1]	37	0.023 | nda μM	
C=CC(=O)N1CCN(c2nc(=O)n(-c3c(C(C)C)ncnc3C(C)C)c3nc(-c4c(O)cccc4F)c(F)cc23)[C@@H](C)C1 [Example 57-4, 1-(4,6-di(2-propanyl)-5-pyrimidinyl)-6-fluoro-7-(2-fluoro-6-hydroxyphenyl)-4-((2S)-2-methyl-4-(2-propenoyl)-1-piperazinyl)pyrido[2,3-d]pyrimidin-2(1H)-one]	61	0.1 | nda μM	
C=CC(=O)N1CCN(c2nc(=O)n(-c3ccccc3C3(C)CC3)c3nc(-c4ccccc4F)c(Cl)cc23)[C@@H](C)C1 [Example 54-99, 6-chloro-7-(2-fluorophenyl)-1-(2-(1-methylcyclopropyl)phenyl)-4-((2S)-2-methyl-4-(2-propenoyl)-1-piperazinyl) pyrido[2,3-d]pyrimidin-2(1H)-one]	294	0.153 | nda μM	
C=CC(=O)N1CCN(c2nc(=O)n(-c3cccnc3C(C)C)c3nc(-c4c(O)cccc4F)c(Cl)cc23)[C@@H](C)C1 (single isomer, unassigned) [Example 54-11-2]		0.343 | nda μM	174
